Assay results from ChEMBL document CHEMBL1124790, “Angiotensin converting enzyme inhibitors. 10. Aryl sulfonamide substituted N-[1-carboxy-3-phenylpropyl]-L-alanyl-L-proline derivatives as novel antihypertensives” (J Med Chem, 1990).
pIC50: −log10 of the molar value. Each block holds one compound with its values, some of them ahead of it. Activity calls are given as the source filed them. The rule behind the calls is not given here.

Legend:
[1] = target: T1, Angiotensin-converting enzyme (Oryctolagus cuniculus) (UniProt P12822); assay: Time to inhibit maximum angiotensin I converting enzyme in rabbit lung; assay type: functional, tissue-based
T1 sequence (whole entry): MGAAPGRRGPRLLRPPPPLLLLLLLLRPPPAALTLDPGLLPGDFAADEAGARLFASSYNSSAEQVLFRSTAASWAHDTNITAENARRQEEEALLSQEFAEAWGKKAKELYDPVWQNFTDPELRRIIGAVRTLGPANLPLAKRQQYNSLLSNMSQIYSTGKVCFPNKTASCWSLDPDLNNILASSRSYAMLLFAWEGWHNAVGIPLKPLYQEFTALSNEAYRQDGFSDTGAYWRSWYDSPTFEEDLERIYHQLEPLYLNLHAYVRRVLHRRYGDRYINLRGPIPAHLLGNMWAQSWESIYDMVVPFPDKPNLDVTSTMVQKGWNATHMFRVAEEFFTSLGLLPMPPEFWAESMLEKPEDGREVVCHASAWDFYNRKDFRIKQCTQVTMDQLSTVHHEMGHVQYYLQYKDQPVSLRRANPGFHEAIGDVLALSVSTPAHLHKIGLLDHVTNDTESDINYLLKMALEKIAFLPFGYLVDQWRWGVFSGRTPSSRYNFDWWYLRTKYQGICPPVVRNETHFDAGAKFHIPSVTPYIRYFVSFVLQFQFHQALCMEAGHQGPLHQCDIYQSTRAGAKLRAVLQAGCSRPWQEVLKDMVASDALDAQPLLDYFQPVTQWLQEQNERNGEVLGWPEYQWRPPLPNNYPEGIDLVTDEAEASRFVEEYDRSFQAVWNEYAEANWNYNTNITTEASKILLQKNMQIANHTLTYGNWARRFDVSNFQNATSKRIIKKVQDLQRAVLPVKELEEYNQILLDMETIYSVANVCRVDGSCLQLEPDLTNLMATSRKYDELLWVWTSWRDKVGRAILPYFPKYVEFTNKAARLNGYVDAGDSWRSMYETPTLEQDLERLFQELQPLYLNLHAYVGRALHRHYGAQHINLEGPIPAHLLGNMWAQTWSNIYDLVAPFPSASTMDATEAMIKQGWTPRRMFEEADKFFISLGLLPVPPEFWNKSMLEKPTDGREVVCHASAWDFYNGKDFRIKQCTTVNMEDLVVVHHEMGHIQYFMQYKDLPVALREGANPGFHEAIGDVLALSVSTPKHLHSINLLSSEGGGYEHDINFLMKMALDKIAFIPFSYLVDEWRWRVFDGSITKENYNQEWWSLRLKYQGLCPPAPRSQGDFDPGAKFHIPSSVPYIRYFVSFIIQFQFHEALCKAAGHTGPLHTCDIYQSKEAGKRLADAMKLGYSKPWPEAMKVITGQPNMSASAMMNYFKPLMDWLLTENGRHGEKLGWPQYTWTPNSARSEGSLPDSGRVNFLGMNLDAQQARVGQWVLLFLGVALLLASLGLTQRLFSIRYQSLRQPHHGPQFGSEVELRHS

[2] = target: T1, Angiotensin-converting enzyme (Oryctolagus cuniculus); assay: Time during which angiotensin I converting enzyme inhibition is greater than or equa to 30% in rabbit lung; assay type: functional, tissue-based
[3] = target: T2, Angiotensin-converting enzyme (Oryctolagus cuniculus, UniProt P12822); assay: In vitro inhibition of angiotensin I converting enzyme(ACE) in rabbit lung; assay type: tissue-based
T2 sequence (P12822 whole entry): T1 sequence (whole entry)

[4] = target: T1, Angiotensin-converting enzyme (Oryctolagus cuniculus); assay: In vivo inhibition of angiotensin I converting enzyme (ACE) in rabbit lung after (iv) administration of a dose of 10(mg/kg); assay type: organism-based
[5] = target: T1, Angiotensin-converting enzyme (Oryctolagus cuniculus); assay: In vivo inhibition of angiotensin I converting enzyme (ACE) in rabbit lung after (po) administration of a dose of 10(mg/kg); assay type: organism-based
Rattus norvegicus [6] = assay: Percent change in K+ in fasted rats at the dose of 82 mg/kg (iv), 0-5 h; assay type: functional
Rattus norvegicus [7] = assay: Antihypertensive activity was determined in spontaneously hypertensive rat at a dose of 100 mg/kg(ip) administration; assay type: functional
Rattus norvegicus [8] = assay: Percent change in urinary volume in fasted rats at the dose of 82 mg/kg (iv), 0-5 h; assay type: functional, Urine
Rattus norvegicus [9] = assay: Time duration was determined for the actioni (determination of MAP in case of oral administration) in rat; assay type: functional
Rattus norvegicus [10] = assay: Time duration was determined for the actioni (determination of MAP in ip administration) in rat; assay type: functional
Rattus norvegicus [11] = species: Rattus norvegicus; assay: The onset hour was determined in rat; assay type: functional
Rattus norvegicus [12] = assay: Percent change in Na+ in fasted rats at the dose of 82 mg/kg (iv), 0-5 h; assay type: functional
Rattus norvegicus [13] = assay: Antihypertensive activity was determined in spontaneously hypertensive rat at a dose of 100 mg/kg(po) administration; assay type: functional
[14] = system: Angiotensin-converting enzyme (Sus scrofa); assay: Time to inhibit maximum angiotensin I converting enzyme in Hog plasma
[15] = system: Angiotensin-converting enzyme (Sus scrofa); assay: Time during which angiotensin I converting enzyme inhibition is greater than or equal to 30% in Hog plasma
[16] = target: T1, Angiotensin-converting enzyme (Oryctolagus cuniculus); assay: Time to inhibit maximum Angiotensin I converting enzyme in rabbit lung; assay type: functional, tissue-based
Rattus norvegicus [17] = assay: Antihypertensive activity was determined in spontaneously hypertensive rat at a dose of 3 mg/kg(po) administration; assay type: functional
Rattus norvegicus [18] = assay: Time duration was determined for the actioni (determination of MAP in po administration) in rat; assay type: functional
[19] = target: Angiotensin-converting enzyme (Homo sapiens) (UniProt P12821+Q9BYF1); details: Sus scrofa; Plasma
[20] = target: T1, Angiotensin-converting enzyme (Oryctolagus cuniculus); details: Lung
[21] = target: T1, Angiotensin-converting enzyme (Oryctolagus cuniculus); assay: Time to maximum inhibition of angiotensin I converting enzyme in rabbit lung; assay type: functional, tissue-based
[22] = target: T2, Angiotensin-converting enzyme; assay: In vitro inhibition of angiotensin I converting enzyme (ACE) in rabbit lung; assay type: tissue-based
[23] = target: T1, Angiotensin-converting enzyme (Oryctolagus cuniculus); assay: In vivo inhibition of angiotensin I converting enzyme(ACE) in rabbit lung at the dose of 10(mg/kg), po; assay type: organism-based
Rattus norvegicus [24] = assay: Percent change in K+ in fasted rats at the dose of 100 mg/kg (iv), 0-5 h; NA=Inactive; assay type: functional, organism-based; design: dose 100 mg/kg
Rattus norvegicus [25] = assay: Percent change in K+ in fasted rats at the dose of 100 mg/kg (po), 0-5 h; assay type: functional
Rattus norvegicus [26] = assay: Percent change in K+ in fasted rats at the dose of 100 mg/kg (po), 5-24 h; assay type: functional
Rattus norvegicus [27] = assay: Percent change in Na+in fasted rats at the dose of 100 mg/kg (po), 0-5 h; assay type: functional
Rattus norvegicus [28] = assay: Percent change in Na+in fasted rats at the dose of 100 mg/kg (po), 5-24 h; assay type: functional
Rattus norvegicus [29] = assay: Percent change in urinary volume in fasted rats at the dose of 100 mg/kg (po), 0-5 h; assay type: functional, Urine
Rattus norvegicus [30] = assay: Percent change in urinary volume in fasted rats at the dose of 100 mg/kg (po), 5-24 h; assay type: functional, Urine
[31] = target: T1, Angiotensin-converting enzyme (Oryctolagus cuniculus); assay: In vivo inhibition of angiotensin I converting enzyme (ACE) in rabbit lung after (ip) administration of a dose of 10(mg/kg); assay type: organism-based
[32] = target: T1, Angiotensin-converting enzyme (Oryctolagus cuniculus); assay: In vivo inhibition of Angiotensin I converting enzyme in rabbit lung after (iv) administration of a dose of 1.0(mg/kg); assay type: organism-based
[33] = target: T2, Angiotensin-converting enzyme; assay: In vitro inhibition of Angiotensin I converting enzyme in rabbit lung; assay type: tissue-based
[34] = target: T1, Angiotensin-converting enzyme (Oryctolagus cuniculus); assay: In vivo inhibition of Angiotensin I converting enzyme in rabbit lung at the dose of 10(mg/kg), po; assay type: organism-based
[35] = target: T1, Angiotensin-converting enzyme (Oryctolagus cuniculus); assay: Time during which Angiotensin I converting enzyme inhibition is greater than or equa to 30% in rabbit lung
[36] = system: Angiotensin-converting enzyme (Sus scrofa); assay: Time to inhibit maximum Angiotensin I converting enzyme in Hog plasma
[37] = system: Angiotensin-converting enzyme (Sus scrofa); assay: Time during which ACE inhibition is greater than or equal to 30% in Hog plasma
[38] = target: T1, Angiotensin-converting enzyme (Oryctolagus cuniculus); assay: In vivo inhibition of Angiotensin I converting enzyme in rabbit lung after (po) administration of a dose of 10(mg/kg); assay type: organism-based

Sequence of Angiotensin-converting enzyme (Homo sapiens) (P12821 whole entry, looked up): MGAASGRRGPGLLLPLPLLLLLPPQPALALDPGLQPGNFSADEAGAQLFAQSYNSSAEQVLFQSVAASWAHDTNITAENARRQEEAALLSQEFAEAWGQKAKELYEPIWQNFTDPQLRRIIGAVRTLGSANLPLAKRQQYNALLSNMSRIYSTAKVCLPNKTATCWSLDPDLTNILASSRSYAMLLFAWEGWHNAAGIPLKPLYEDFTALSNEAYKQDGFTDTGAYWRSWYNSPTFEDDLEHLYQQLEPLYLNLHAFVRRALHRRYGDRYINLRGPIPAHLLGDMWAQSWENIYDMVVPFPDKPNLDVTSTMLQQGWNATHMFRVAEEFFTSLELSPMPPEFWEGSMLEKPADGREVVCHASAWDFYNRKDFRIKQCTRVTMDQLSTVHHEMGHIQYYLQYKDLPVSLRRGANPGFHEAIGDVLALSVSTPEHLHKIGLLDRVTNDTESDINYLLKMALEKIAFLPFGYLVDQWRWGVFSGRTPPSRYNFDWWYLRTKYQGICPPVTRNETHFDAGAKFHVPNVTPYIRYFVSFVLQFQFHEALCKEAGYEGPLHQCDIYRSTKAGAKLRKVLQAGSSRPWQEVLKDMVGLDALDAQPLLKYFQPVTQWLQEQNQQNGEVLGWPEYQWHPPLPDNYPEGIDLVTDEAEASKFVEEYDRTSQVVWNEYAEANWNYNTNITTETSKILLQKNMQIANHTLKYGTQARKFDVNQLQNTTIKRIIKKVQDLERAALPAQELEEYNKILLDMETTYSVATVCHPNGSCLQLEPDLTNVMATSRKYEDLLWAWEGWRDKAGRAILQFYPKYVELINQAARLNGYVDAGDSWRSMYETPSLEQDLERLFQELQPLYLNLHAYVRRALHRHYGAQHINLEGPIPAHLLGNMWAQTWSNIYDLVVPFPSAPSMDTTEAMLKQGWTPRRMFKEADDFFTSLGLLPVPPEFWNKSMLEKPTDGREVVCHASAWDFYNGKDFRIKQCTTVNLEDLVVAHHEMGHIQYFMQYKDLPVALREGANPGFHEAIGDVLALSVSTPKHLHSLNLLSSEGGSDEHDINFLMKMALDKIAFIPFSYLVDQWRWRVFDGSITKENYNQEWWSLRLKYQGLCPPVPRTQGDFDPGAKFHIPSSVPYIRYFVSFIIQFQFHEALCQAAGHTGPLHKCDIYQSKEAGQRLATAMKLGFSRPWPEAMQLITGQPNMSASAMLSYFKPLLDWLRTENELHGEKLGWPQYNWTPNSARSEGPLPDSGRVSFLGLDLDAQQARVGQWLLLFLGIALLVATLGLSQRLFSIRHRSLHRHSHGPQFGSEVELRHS
Sequence of Angiotensin-converting enzyme (Homo sapiens) (Q9BYF1 whole entry, looked up): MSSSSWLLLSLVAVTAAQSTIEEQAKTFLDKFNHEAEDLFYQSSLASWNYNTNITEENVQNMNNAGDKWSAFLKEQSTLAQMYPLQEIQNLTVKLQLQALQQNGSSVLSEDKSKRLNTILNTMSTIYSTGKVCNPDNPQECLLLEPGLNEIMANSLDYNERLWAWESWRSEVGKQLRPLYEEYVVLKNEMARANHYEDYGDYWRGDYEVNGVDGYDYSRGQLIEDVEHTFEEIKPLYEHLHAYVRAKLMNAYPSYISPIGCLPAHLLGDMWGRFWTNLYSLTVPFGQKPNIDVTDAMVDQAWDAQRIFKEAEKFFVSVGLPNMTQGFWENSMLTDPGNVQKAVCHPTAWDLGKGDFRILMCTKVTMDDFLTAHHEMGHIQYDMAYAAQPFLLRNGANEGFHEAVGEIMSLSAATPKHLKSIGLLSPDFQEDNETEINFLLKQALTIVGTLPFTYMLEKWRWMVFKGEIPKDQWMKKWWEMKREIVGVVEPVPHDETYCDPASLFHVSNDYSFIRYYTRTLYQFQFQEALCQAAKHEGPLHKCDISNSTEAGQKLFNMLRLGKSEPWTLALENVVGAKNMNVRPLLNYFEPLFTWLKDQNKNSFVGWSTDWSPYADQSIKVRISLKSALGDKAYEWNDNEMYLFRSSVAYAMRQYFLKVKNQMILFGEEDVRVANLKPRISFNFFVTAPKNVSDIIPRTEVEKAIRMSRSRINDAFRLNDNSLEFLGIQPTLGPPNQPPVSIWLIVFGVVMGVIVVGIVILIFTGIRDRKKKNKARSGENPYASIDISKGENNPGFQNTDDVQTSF

Time to max. inhibition [16]: 1 h
Duration [19]: > 3 h
Duration [20]: > 4 h
Structure (SMILES): CCOC(=O)[C@H](CCc1ccccc1)N[C@@H](C)C(=O)N1CCC[C@H]1C(=O)O
Change in MAP (Rattus norvegicus [17]): -10%
Duration (Rattus norvegicus [18]): 4 h
Onset (Rattus norvegicus [11]): 1 h

Time to max. inhibition [16]: 0.3 h
inhibition [32]: 85%
pIC50 [33]: 7.59
inhibition [34]: 52%
Duration [35]: 3 h
Time to max. inhibition [36]: 0.3 h
Duration [37]: 0 h
Structure (SMILES): C[C@H](N[C@@H](CCc1ccccc1)C(=O)O)C(=O)N1CC(NNC(=O)c2ccc(Cl)c(S(N)(=O)=O)c2)C[C@H]1C(=O)O (stereo partly drawn)

Time to max. inhibition [16]: 0.7 h
inhibition [38]: 69%
Duration [20]: 2 h
Structure (SMILES): C[C@H](CS)C(=O)N1CCC[C@H]1C(=O)O

More lines, now with the values behind:

Structure (SMILES): C[C@H](N[C@@H](CCc1ccccc1)C(=O)O)C(=O)N1C[C@H](OCCC2Nc3cc(Cl)c(S(N)(=O)=O)cc3S(=O)(=O)N2)C[C@H]1C(=O)O (stereo partly drawn)
Time to max. inhibition [1]: 0.3 h
Duration [2]: 3.7 h
pIC50 [3]: 7.66
inhibition [4]: 100%
inhibition [5]: 38%
Change (Rattus norvegicus [6]): 80%
Change in MAP (Rattus norvegicus [7]): -35%
Change (Rattus norvegicus [8]): 0%
Duration (Rattus norvegicus [9]): 19 h
Duration (Rattus norvegicus [10]): >14 h
Onset (Rattus norvegicus [11]): 0.25 h
Change (Rattus norvegicus [12]): 60%
Change in MAP (Rattus norvegicus [13]): -19%
Time to max. inhibition [14]: 2.6 h
Duration [15]: 1.6 h

Structure (SMILES): C[C@H](N[C@@H](CCc1ccccc1)C(=O)O)C(=O)N1C(c2ccc(Cl)c(S(N)(=O)=O)c2)SC[C@H]1C(=O)O (stereo partly drawn)
Time to max. inhibition [1]: 0.3 h
Time to max. inhibition [21]: 0.3 h
pIC50 [22]: 8.10
inhibition [23]: 44%
Change (Rattus norvegicus [24]): inactive
Change (Rattus norvegicus [25]): 0%
Change (Rattus norvegicus [26]): -45%
Change (Rattus norvegicus [27]): 0%
Change (Rattus norvegicus [28]): -22%
Change (Rattus norvegicus [29]): -43%
Change (Rattus norvegicus [30]): -42%
inhibition [31]: 96%
